Data set [1] relates to U87 cells. Kind of data set: Cell viability of U87 cells with IDPASu (Cell Counting Kit-8). In kind it is cell-based, human. The procedure: (§1) All the cells were purchased from the American Type Culture Collection, including CatB-negative cells (mouse embryonic fibroblasts 3T3 cells, RAW 264.7, 293-T and human monocytic THP-1 cells) and CatB-positive cells (human U87 glioblastoma cells, U87-luciferase cells, A549 lung epithelial cells and 4T1 and melanoma B16-F10). All the cells were cultured
(§2) in Dulbecco's modified Eagle medium (Gibco) or RPMI 1640 medium containing 10.0% foetal bovine serum (Gibco) and 0.1% ciprofloxacin in a humidified atmosphere containing 5.0% CO2 and 95.0% air at 37° C. To study the cell viability of IDPASu, U87 cells (1×10^4 per well) were seeded on 96-well plates and incubated for 24 h. IDPASu at different concentrations (0, 2.5, 5.0, 10.0, 25.0, 50.0 and 100.0 μM) were added to the U87 cell medium for 12 h incubation. After incubation, 96-well plates were covered with chicken breast tissues with different thicknesses (0, 5, 8 and 15 cm), followed by X-ray irradiation. The X-ray setup was optimized to ensure the cells in all the wells received similar dose of X-ray irradiation (2 Gy) before chicken breast tissue coverage (0 cm). After irradiation, the cells were further incubated for 12 h, followed by the colorimetric Cell Counting Kit-8 assay. Briefly, Cell Counting Kit-8 solution (10 l, Dojindo Molecular Technologies) was added into the cell medium (100 l) for 2 h incubation, and the absorbance of medium at 450 nm was recorded using a microplate reader (ReadMax 1900). The cells without IDPASu incubation and X-ray irradiation were set as control. The cell viability (%) was calculated by the absorbance of treated cells over that of the control cells. To test the cell viability of activatable MRAP, U87 and 3T3 cells (1×10^4 per well) were seeded on 96-well plates and incubated for 24 h. The inhibitor group was pre-treated with a CatB inhibitor (CA-074, 1 mM) for 10 h incubation. MRAP at different concentrations (0, 2.5, 5.0, 10.0, 25.0, 50.0 and 100.0 µM) were added to the U87 and 3T3 cell medium for 12 h incubation. […]
(Formazan colour is commonly taken as a measure of viable cells.)

Assay in data set [2]: as above
As to conditions: human, u87 cells; 100 μM; read-out: cell viability without X-ray. In kind it is cell-based, human. As to the method:
as §1, §2

Data set [3] deals with U87MG subcutaneous tumor. Kind of data set: X-ray-induced afterglow in U87MG subcutaneous tumor-bearing mice. In kind it is in vivo, Balb/c nude mice. The note with it: local injection. The procedure:
For in vivo RAI by IDPASu, subcutaneous U87-tumour-bearing mice were intratumorally injected with IDPASu(100 μM, […]) solubilized with P-cyclodextrin (100 μM). Each group has three mice. At different post-injection timepoints (0, 0.5, 1.0, 2.0, 4.0, 6.0, 8.0, 12.0, 16.0 and 24.0 h), the tumours were irradiated with X-rays (5 mGy, 250 μGy s^−1 for 20 s), followed by radio afterglow detection using the IVIS imaging system under the bioluminescence mode with an open filter and acquisition time of 120 s. Tumour-free areas were protected by a 3.4-mm-thick lead shield with a notch. […] Radio afterglow signals from brain tumours were recorded with the IVIS imaging system under the bioluminescence mode with an open filter and acquisition time of 120 s. […] The tumour sizes were calculated as per the above-mentioned equation, showing ~0 mm^3 for 1 day post-implantation, 6 mm^3 (tumour diameter, 2.3 mm) for 5 days post-implantation, 22 mm^3 for 10 days post-implantation, 43 mm^3 for 20 days post-implantation and 77 mm^3 for 30 days post-implantation. At 15 min post-intraperitoneal injection of aqueous d-luciferin sodium salt (500 μmol kg^−1) solution into mice with different tumour sizes, the bioluminescence signals from the tumour sites were recorded with the IVIS imaging system under the bioluminescence mode with an open filter and automatic acquisition time. […]

The text below walks through data of US20260335468A1, “MOLECULAR RADIOAFTERGLOW PROBES FOR CANCER RADIODYNAMIC THERANOSTICS” (NANYANG TECHNOLOGICAL UNIVERSITY, priority 2023, published 2026).

What is called viability is a per cent measure of how many cells are alive, often set against a control. As to `COC(=C1C2CC3CC(C2)CC1C3)c1cc(O)c(I)cc1/C=C/C1=CC(=C(C#N)C#N)c2ccccc2S1` [IDPASu], the “cell viability under X-ray irradiation” value in data set [1] (100 μM, X-ray 2 Gy, 100 mGy s^−1 for 20 s, no tissue) was found to be 1.4%. In addition, the “cell viability under X-ray irradiation at tissue depth of 15 cm” value in data set [1] (X-ray through 15 cm chicken breast tissue) is on record as 31.9%. For the same compound, in data set [2], the viability at 24 h, 100 µM is 91%. In addition, the “Intensity per dose per mouse” value in data set [3] is listed as 1.27 × 10^6 (p/s/cm2/sr)/(μg).
